Experiments:
[1] = target: T1, Human NPT2a (Homo sapiens, UniProt Q06495); assay: 33P-phosphate uptake in CHO cells expressing human NPT2a; assay type: cell-based
T1 construct: Full Length cDNA Cloning and Generation of Cell Lines Over-Expressing Human NPT2a, NPT2c, Pit1, and Pit2; host or cells: CHO-K1 / T-REx CHO, pJTI R4 CMV-TO, tetracycline-induced
T1 sequence (Q06495 1-639): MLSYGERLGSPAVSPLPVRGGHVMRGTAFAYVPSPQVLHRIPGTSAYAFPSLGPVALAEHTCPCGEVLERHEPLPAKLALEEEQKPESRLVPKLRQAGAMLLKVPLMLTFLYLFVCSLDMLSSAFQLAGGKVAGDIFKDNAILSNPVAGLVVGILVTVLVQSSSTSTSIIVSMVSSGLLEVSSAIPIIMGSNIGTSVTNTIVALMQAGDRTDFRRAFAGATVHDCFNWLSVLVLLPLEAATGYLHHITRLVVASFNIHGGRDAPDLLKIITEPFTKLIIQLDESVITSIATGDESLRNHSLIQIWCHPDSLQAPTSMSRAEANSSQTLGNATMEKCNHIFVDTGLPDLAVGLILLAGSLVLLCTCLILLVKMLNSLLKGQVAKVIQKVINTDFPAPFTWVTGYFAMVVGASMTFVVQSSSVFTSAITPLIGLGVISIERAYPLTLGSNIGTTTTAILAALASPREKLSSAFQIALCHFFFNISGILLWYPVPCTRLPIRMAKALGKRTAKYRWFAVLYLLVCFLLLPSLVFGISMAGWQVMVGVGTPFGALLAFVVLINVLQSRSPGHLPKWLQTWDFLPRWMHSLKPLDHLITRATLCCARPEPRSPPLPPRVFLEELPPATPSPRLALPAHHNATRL
Method: (§1) T‐Rex™ Chinese Hamster Ovary cells (CHO; Thermo Fisher Scientific) stably expressing human, mouse, or rat NPT2b under a tetracycline‐inducible promoter were generated using standard cDNA transfection and clone selection procedures (see Supporting Information). Cells were plated in 96‐well CytoStar‐T® scintillating microplates and were incubated overnight in growth media plus 100 ng/ml of tetracycline to induce expression of NPT2b. The next day, cells were washed 3 times with 200 µl assay buffer (137 mM NaCl, 5.4 mM KCl, 2.8 mM CaCl2, 1.2 mM MgSO4, and 14 mM Tris‐HCl buffer, pH 7.5). LY3358966 serially diluted 1‐to‐3 in DMSO was added to cells with assay buffer. An equal volume of H3 ^33PO4 (PerkinElmer) in assay buffer supplemented with 5 µM potassium phosphate was then added to initiate radiolabeled phosphate (^33P‐phosphate) uptake. […] The plate was immediately read on a Wallac MicroBeta Trilux liquid scintillation counter. Percent inhibition at all concentrations tested was calculated, and IC50 values were then determined using a 4‐parameter logistic curve fitting equation.
(§2) Similar methods were used to measure the effects of LY3358966 on other transporters of interest, except that constitutive promoters were used to generate CHO cells over‐expressing human PiT1 and PiT2. The ^33P‐phosphate uptake was measured after 45 min at 20°C for the NPT2a, NPT2c, PiT1, and PiT2 assays. […]

[2] = Unbound fraction in plasma by equilibrium dialysis; assay type: in vitro ADME; conditions: mouse plasma
Method: Male CD‐1 male mice were orally dosed with 1, 3, or 10 mg/kg API of LY3358966 SDD dissolved in water or were IV dosed with 1 mg/kg LY3358966 formulated in 25% dimethylacetamide, 15% ethanol, 10% propylene glycol, 25% 2‐pyrrolidone, and 25% water. Each dose group contained six animals. Three animals were bled at 0.25, 0.5, 1, 2, 4, 8, 12, and 24 h, with each animal being bled at alternate time points. Plasma drug levels were determined by HPLC/MS. The unbound fraction of LY3358966 in plasma was determined with equilibrium dialysis and LC‐MS/MS.

[3] = target: T2, Human PiT2 (Homo sapiens, UniProt Q08357); assay: 33P-phosphate uptake in CHO cells over-expressing human PiT2; assay type: cell-based
T2 construct: Full Length cDNA Cloning and Generation of Cell Lines Over-Expressing Human NPT2a, NPT2c, Pit1, and Pit2; host or cells: CHO-K1, pcDNA3.1(+), constitutive
T2 sequence (Q08357 1-652): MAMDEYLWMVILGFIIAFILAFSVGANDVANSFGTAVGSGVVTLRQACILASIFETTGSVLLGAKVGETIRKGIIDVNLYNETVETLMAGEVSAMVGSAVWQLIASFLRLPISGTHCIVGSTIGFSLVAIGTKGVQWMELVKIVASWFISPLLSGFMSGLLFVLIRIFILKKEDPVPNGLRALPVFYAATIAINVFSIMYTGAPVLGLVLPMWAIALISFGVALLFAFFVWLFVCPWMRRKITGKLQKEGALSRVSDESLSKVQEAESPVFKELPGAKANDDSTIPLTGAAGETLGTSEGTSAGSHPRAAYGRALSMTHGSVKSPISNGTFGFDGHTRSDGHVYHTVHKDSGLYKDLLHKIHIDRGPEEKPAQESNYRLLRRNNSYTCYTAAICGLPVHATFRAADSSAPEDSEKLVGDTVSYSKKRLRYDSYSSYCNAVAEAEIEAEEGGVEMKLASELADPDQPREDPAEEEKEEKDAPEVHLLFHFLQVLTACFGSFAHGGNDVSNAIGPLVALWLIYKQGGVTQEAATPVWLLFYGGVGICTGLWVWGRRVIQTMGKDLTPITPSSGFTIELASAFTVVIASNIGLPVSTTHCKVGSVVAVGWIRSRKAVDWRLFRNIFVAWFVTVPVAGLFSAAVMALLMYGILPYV
Method: as §1, §2

IC50 ([1]; geometric mean, 45 min at 20°C): 11 nM
Selectivity ([1]; ratio of IC50 of human NPT2a assay to that of human NPT2b assay): 0.3
fraction unbound [2]: 0.005
IC50 ([3]; 45 min at 20°C): > 100000 nM
Selectivity ([3]; ratio of IC50 of human PiT2 assay to that of human NPT2b assay): >3086
SMILES: CC1(C)CN(C(=O)NCCCCO)CCN1Cc1cccc(C(=O)Nc2sc3c(c2C(=O)Nc2cc(F)c(CCc4ccc(C(=O)O)cc4)c(F)c2)CCCC3)c1 [LY3358966, 4‐[2‐[2,6‐difluoro‐4‐[[2‐[[3‐[[4‐(4‐hydroxybutylcarbamoyl)‐2,2‐dimethyl‐piperazin‐1‐yl]methyl]benzoyl]amino]‐4,5,6,7‐tetrahydrobenzothiophene‐3‐carbonyl]amino]phenyl]ethyl]benzoic acid]

Source: publication PMC8863579, “Effects of pharmacological inhibition of the sodium‐dependent phosphate cotransporter 2b (NPT2b) on intestinal phosphate absorption in mouse and rat models” (Pharmacology Research & Perspectives, 2022)
